Measurements reported in ChEMBL document CHEMBL1151618, “Neoisostegane, a new bisbenzocyclooctadiene lignan lactone from Steganotaenia araliacea” (1984).
Values after ≈ are worked out from the molar mass of the structure shown.

System: KB
Experiment: Cytotoxicity against human KB cells
Format: functional
Conditions: read-out: ED50 (the source's name)

`COc1cc2c(cc1OC)-c1cc(OC)c(OC)c(OC)c1C[C@H]1C(=O)OC[C@@H]1C2` [NEOISOSTEGANE] gave an EC50 of 6.6 µg/mL (≈ 15.9 µM).
